Test results from patent US10975082B2, “Inhibitor of FLT3 kinase and use thereof” (PRECEDO PHARMACEUTICALS CO., LTD, priority 2016, dated 2021).

Tests used:
[1] = tested on: BaF3-TEL-cKit [N882K]; assay: Cell proliferation, Cell Titer-Glo, GI50; assay type: cell-based; details: Mus musculus, 72 hours
Method: (§1) Compounds of the invention were evaluated for their inhibitory effects on proliferation of cancer cells as well as the selectivity thereof by testing their effects on growth of cancer cells (Table 2).
(§2) Mouse BaF3-FLT3[ITD] (stably expressing FLT3[ITD] mutant activated kinase), mouse tel-BaF3-FLT3-D835Y (stably expressing FLT3[D835Y]mutant activated kinase), mouse tel-BaF3-BMX (stably expressing BMX kinase), mouse tel-FLT3-BaF3 (stably expressing FLT3 kinase), mouse BaF3-FLT3-ITD-D835Y (stably expressing FLT3[ITD+D835Y]mutant activated kinase), mouse BaF3-FLT3-ITD-F691L (stably expressing FLT3[ITD+F691L]mutant activated kinase), mouse tel-cKIT-BaF3 (stably expressing cKIT kinase), mouse BaF3-tel-cKit-N882K (stably expressing cKIT-N882K mutant activated kinase), mouse BaF3-tel-cKit-D816V (stably expressing cKIT-D816V mutant activated kinase), mouse BaF3-tel-cKit-T670I (stably expressing cKIT-T670I mutant activated kinase), mouse TPR-MET-BaF3 (stably expressing MET kinase), mouse tel-BaF3-EGFR (stably expressing EGFR kinase), mouse BaF3-FL-EGFR-L858R (stably expressing EGFR[L858R]mutant activated kinase), mouse tel-BaF3-BLK (stably expressing BLK kinase), mouse tel-JAK1-BaF3 (stably expressing JAK1 kinase) and the like were also used (see Table 2 for details). The above cell lines were all constructed by our laboratory according to the following method: the kinase region sequences of human FLT3/ITD, FLT3 D835Y, BMX, FLT3, FLT3[ITD+D835Y], FLT3[ITD+F691L], cKIT, cKIT [N882K], cKIT [D816V], cKIT [T670I], MET, EGFR, EGFR [L858R], BLK, JAK1, FLT3[K663Q], FLT3[D835V], FLT3[D835H], PDGFRa, PEGFRb, VEGFR2, JAK2, JAK3, ABL were amplified by PCR, and inserted into MSCV-Puro vectors with N-terminal TEL or TPR fragments (purchased from Clontech), respectively. The vectors were stably transfected into mouse BaF3 cells (purchased from ATCC) by means of retrovirus, and the growth factor IL-3 were removed, eventually obtaining cell lines that are transferred protein (FLT3/ITD, FLT3 D835Y, BMX, FLT3, FLT3[ITD D835Y], FLT3[ITD+F691L], cKIT, cKIT [N882K], cKIT [D816V], cKIT [T670I], MET, EGFR, EGFR [L858R], BLK, JAK1, FLT3[K663Q], FLT3[D835V], FLT3[D835H], PDGFRa, PEGFRb, VEGFR2, JAK2, JAK3, ABL)-dependent.
(§3) Then the number of viable cells was determined by quantification of ATP in living cells using Cell Titer-Glo® (Promega, the USA) Luminescent Cell Viability Assay kit and thereby GI50 was calculated.

[2] = tested on: BaF3-TEL-cKIT; assay: Cell proliferation, Cell Titer-Glo, GI50; assay type: cell-based; details: Mus musculus, 72 hours
Method: as §1, §2, §3

[3] = tested on: BaF3-TEL-FLT3 [K663Q]; assay: Cell proliferation, Cell Titer-Glo, GI50; assay type: cell-based; details: Mus musculus, 72 hours
Method: as §1, §2, §3

[4] = tested on: BaF3-FLT3 [ITD + D835Y]; assay: Cell proliferation, Cell Titer-Glo, GI50; assay type: cell-based; details: Mus musculus, Ba/F3 FLT3-ITD, 72 hours
Method: as §1, §2, §3

[5] = tested on: BaF3-FLT3 [ITD]; assay: Cell proliferation, Cell Titer-Glo, GI50; assay type: cell-based; details: Mus musculus, Ba/F3 FLT3-ITD, 72 hours
Method: as §1, §2, §3

[6] = tested on: BaF3-TEL-FLT3 [D835Y]; assay: Cell proliferation, Cell Titer-Glo, GI50; assay type: cell-based; details: Mus musculus, 72 hours
Method: as §1, §2, §3

[7] = tested on: BaF3-TEL-cKit [D816V]; assay: Cell proliferation, Cell Titer-Glo, GI50; assay type: cell-based; details: Mus musculus, 72 hours
Method: as §1, §2, §3

[8] = tested on: BaF3-TEL-FLT3 [D835V]; assay: Cell proliferation, Cell Titer-Glo, GI50; assay type: cell-based; details: Mus musculus, 72 hours
Method: as §1, §2, §3

[9] = tested on: BaF3-TEL-FLT3; assay: Cell proliferation, Cell Titer-Glo, GI50; assay type: cell-based; details: Mus musculus; BaF3-TEL-FLT3, 72 hours
Method: as §1, §2, §3

[10] = tested on: U937; assay: Cancer cell proliferation, Cell Titer-Glo, GI50; assay type: cell-based; details: Homo sapiens, U-937; U937, 72 hours
Method: as §1
(§4) In this example the following cells were selected: human acute myeloid leukemia cells MV-4-11 (expressing FLT3[ITD] mutant gene), human acute myeloid leukemia cells MOLM-13 (expressing FLT3[ITD] mutant gene and wild-type FLT3 gene), human acute myeloid leukemia cells MOLM-14 (expressing FLT3[ITD] mutant gene and wild-type FLT3 gene), human acute myeloid leukemia cells OCI-AML3 (expressing FLT3[A680V] mutant gene), human acute myeloid leukemia cells U937 (expressing wild-type FLT3 gene), and mouse pro-B cells BaF3, and the above cells were purchased from ATCC.
as §3

[11] = tested on: MV-4-11; assay: Cancer cell proliferation, Cell Titer-Glo, GI50; assay type: cell-based; details: Homo sapiens, MV4-11; MV-4-11, 72 hours
Method: as §1, §4, §3

[12] = tested on: MOLM-14; assay: Cancer cell proliferation, Cell Titer-Glo, GI50; assay type: cell-based; details: Homo sapiens; MOLM-14, 72 hours
Method: as §1, §4, §3

[13] = tested on: BaF3; assay: Cell proliferation, Cell Titer-Glo, GI50; assay type: cell-based; details: Mus musculus; BaF3, 72 hours
Method: as §1, §4, §3

[14] = tested on: MOLM-13, MOLM-14 and MV-4-11 cell lines; assay: Cell cycle distribution by flow cytometry (PI); assay type: cell-based, human; details: MOLM-13, MOLM-14 and MV-4-11, 12 or 24 hours; Compound 1 0.01-0.1 μM, AC220 0.1 μM

**Q.** Which results are given for `CC(C)(C)c1ccc(NC(=O)Nc2ccc(-n3nc(-c4ccc(OCCN5CCOCC5)cc4)c4c(N)ncnc43)cc2)cc1` [Compound 10, 1-(4-(4-amino-3-(4-(2-morpholinoethoxy)phenyl)-1H-pyrazolo[3,4-d]pyrimidin-1-yl)phenyl)-3-(4-(tert-butyl)phenyl)urea]?
**A.** GI50 [1]: 1100 nM; GI50 [2]: 990 nM; GI50 [3]: > 10000 nM; GI50 [4]: 4400 nM; GI50 [5]: 24 nM; GI50 [6]: 4400 nM; GI50 [7]: 4400 nM; GI50 [8]: 4500 nM; GI50 [9]: 190 nM; GI50 [10]: 8500 nM; GI50 [11]: 63 nM; GI50 [12]: 81 nM; GI50 [13]: > 10000 nM

**Q.** How did the cell cycle distribution [14] turn out when `CC(C)(C)c1cc(NC(=O)Nc2ccc(-c3cn4c(n3)sc3cc(OCCN5CCOCC5)ccc34)cc2)no1` [AC220, reference compound] was run?
**A.** Its cell cycle distribution is “similar”.

**Q.** How did the GI50 [1] turn out when `CN(C)CCNC(=O)Nc1ccc(-n2nc(-c3ccc(OCCN4CCOCC4)cc3)c3c(N)ncnc32)cc1` [Compound 5, 1-(4-(4-amino-3-(4-(2-morpholinoethoxy)phenyl)-1H-pyrazolo[3,4-d]pyrimidin-1-yl)phenyl)-3-(2-(dimethylamino)ethyl)urea] was run?
**A.** Its GI50 is 3300 nM.

**Q.** What about the GI50 [2] of the same compound?
**A.** The GI50 was 3500 nM.

**Q.** What about the GI50 [3] of the same compound?
**A.** Its GI50 is 3700 nM.

**Q.** What about the GI50 [4] of the same compound?
**A.** Its GI50 is 1300 nM.

**Q.** What about the GI50 [5] of the same compound?
**A.** The GI50 was 100 nM.

**Q.** What about the GI50 [6] of the same compound?
**A.** The GI50 was 1300 nM.

**Q.** What about the GI50 [7] of the same compound?
**A.** The GI50 was 8300 nM.

**Q.** And the GI50 [8]?
**A.** The GI50 was 1700 nM.

**Q.** What about the GI50 [9] of the same compound?
**A.** Its GI50 is 320 nM.

**Q.** And the GI50 [10]?
**A.** The GI50 was 9200 nM.

**Q.** And the GI50 [11]?
**A.** The GI50 was 82 nM.

**Q.** And the GI50 [12]?
**A.** Its GI50 is 130 nM.

**Q.** What about the GI50 [13] of the same compound?
**A.** Its GI50 is 3800 nM.

**Q.** `CC(C)CNC(=O)Nc1ccc(-n2nc(-c3ccc(OCCN4CCOCC4)cc3)c3c(N)ncnc32)cc1` [Compound 4, 1-(4-(4-amino-3-(4-(2-morpholinoethoxy)phenyl)-1H-pyrazolo[3,4-d]pyrimidin-1-yl)phenyl)-3-isobutylurea] was tested. Which GI50 [1] did it give?
**A.** Its GI50 is over 10000 nM.

**Q.** And the GI50 [2]?
**A.** Its GI50 is over 10000 nM.

**Q.** What about the GI50 [3] of the same compound?
**A.** Its GI50 is over 10000 nM.

**Q.** What about the GI50 [4] of the same compound?
**A.** The GI50 was over 10000 nM.

**Q.** What about the GI50 [5] of the same compound?
**A.** The GI50 was 1100 nM.

**Q.** And the GI50 [6]?
**A.** The GI50 was over 10000 nM.

**Q.** What about the GI50 [7] of the same compound?
**A.** The GI50 was over 10000 nM.

**Q.** And the GI50 [8]?
**A.** Its GI50 is over 10000 nM.

**Q.** And the GI50 [9]?
**A.** Its GI50 is 5400 nM.

**Q.** And the GI50 [10]?
**A.** The GI50 was over 10000 nM.

**Q.** What about the GI50 [11] of the same compound?
**A.** The GI50 was 2800 nM.

**Q.** And the GI50 [12]?
**A.** Its GI50 is 2500 nM.

**Q.** And the GI50 [13]?
**A.** The GI50 was over 10000 nM.

**Q.** How did the GI50 [1] turn out when `CCN1CCN(Cc2ccc(-c3nn(-c4ccc(NC(=O)Nc5cc(C(C)(C)C)on5)cc4)c4ncnc(N)c34)cc2)CC1` [Compound 20, 1-(4-(4-amino-3-(4-((4-ethylpiperazin-1-yl)methyl)phenyl)-1H-pyrazolo[3,4-d]pyrimidin-1-yl)phenyl)-3-(5-(tert-butyl)isoxazol-3-yl)urea] was run?
**A.** The GI50 was 9 nM.

**Q.** And the GI50 [2]?
**A.** Its GI50 is 40 nM.

**Q.** What about the GI50 [3] of the same compound?
**A.** Its GI50 is 1600 nM.

**Q.** And the GI50 [4]?
**A.** The GI50 was 240 nM.

**Q.** What about the GI50 [5] of the same compound?
**A.** The GI50 was 0.9 nM.

**Q.** What about the GI50 [6] of the same compound?
**A.** The GI50 was 240 nM.

**Q.** And the GI50 [7]?
**A.** Its GI50 is 1900 nM.

**Q.** And the GI50 [8]?
**A.** The GI50 was 8 nM.

**Q.** What about the GI50 [9] of the same compound?
**A.** The GI50 was 2 nM.

**Q.** What about the GI50 [10] of the same compound?
**A.** Its GI50 is 1700 nM.

**Q.** What about the GI50 [11] of the same compound?
**A.** The GI50 was under 0.3 nM.

**Q.** And the GI50 [12]?
**A.** The GI50 was under 0.3 nM.

**Q.** What about the GI50 [13] of the same compound?
**A.** Its GI50 is 2500 nM.
